# Test results from ChEMBL document CHEMBL1201862, “PubChem BioAssay data set” (2004).
#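 Method: 48-hour compound exposure of cells in 96-well plates, five concentrations, linear interpolation of endpoints. Here, GI50 denotes the concentration required for 50% inhibition of growth.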 The source made the active and inactive calls. Rule as the data show it: active = GI50 up to about 1.1 µM and inactive = higher.
# Tests used:
# Assay in all cases: NCI-60 cell line screen, 48 h
# U-251 = tested on: U-251
# SNB-78 = tested on: SNB-78
# ACHN = tested on: ACHN
# UO-31 = tested on: UO-31
# SK-MEL-5 = tested on: SK-MEL-5
# SK-MEL-28 = tested on: SK-MEL-28
# CCRF-CEM = tested on: CCRF-CEM
# M14 = tested on: M14
# HCT-116 = tested on: HCT-116
# SNB-75 = tested on: SNB-75
# KM-20L2 = tested on: KM-20L2
# A549 = tested on: A549
# LOX IMVI = tested on: LOX IMVI
# K562 = tested on: K562
# RPMI-8226 = tested on: RPMI-8226
# SF-295 = tested on: SF-295
# COLO 205 = tested on: COLO 205
# MOLT-4 = tested on: MOLT-4
# TK-10 = tested on: TK-10
# LXFL 529 = tested on: LXFL 529
# NCI-H460 = tested on: NCI-H460
# SF-539 = tested on: SF-539
# 786-0 = tested on: 786-0
# OVCAR-4 = tested on: OVCAR-4
# SW-620 = tested on: SW-620
# SNB-19 = tested on: SNB-19
# SK-MEL-2 = tested on: SK-MEL-2
# Malme-3M = tested on: Malme-3M
# IGROV-1 = tested on: IGROV-1
# A498 = tested on: A498
# SK-OV-3 = tested on: SK-OV-3
# DLD-1 = tested on: DLD-1
# EKVX = tested on: EKVX
# KM12 = tested on: KM12
# HOP-62 = tested on: HOP-62
# CAKI-1 = tested on: CAKI-1
# DMS-114 = tested on: DMS-114
# HL-60 = tested on: HL-60
# OVCAR-5 = tested on: OVCAR-5
# M19-MEL = tested on: M19-MEL
# OVCAR-8 = tested on: OVCAR-8
# OVCAR-3 = tested on: OVCAR-3
# RXF 631 = tested on: RXF 631
# UACC-62 = tested on: UACC-62
# HCT-15 = tested on: HCT-15
# UACC-257 = tested on: UACC-257
# SF-268 = tested on: SF-268
# HCC 2998 = tested on: HCC 2998
# NCI/ADR-RES = tested on: NCI/ADR-RES
# MDA-MB-435 = tested on: MDA-MB-435
# SR = tested on: SR
# HOP-92 = tested on: HOP-92
# NCI-H226 = tested on: NCI-H226
# Hs-578T = tested on: Hs-578T
# HT-29 = tested on: HT-29
# NCI-H522 = tested on: NCI-H522
# HOP-18 = tested on: HOP-18
# T47D = tested on: T47D
# DMS-273 = tested on: DMS-273
# DU-145 = tested on: DU-145
# MCF7 = tested on: MCF7
# MDA-N = tested on: MDA-N
# XF498 = tested on: XF498
# MDA-MB-231 = tested on: MDA-MB-231
# NCI-H23 = tested on: NCI-H23
# PC-3 = tested on: PC-3
# SN12C = tested on: SN12C
# RXF 393 = tested on: RXF 393
structure (smiles),measurement,setting,value
N#CC(/C(=N\NC(=O)c1ccncc1)C(=O)Nc1ccc([N+](=O)[O-])cc1[N+](=O)[O-])c1nc(-c2ccc(Br)cc2)cs1 (centres undefined),GI50,U-251,> 100 µM (inactive)
same,GI50,SNB-78,> 100 µM (inactive)
same,GI50,ACHN,> 100 µM (inactive)
same,GI50,UO-31,> 100 µM (inactive)
same,GI50,SK-MEL-5,> 100 µM (inactive)
same,GI50,SK-MEL-28,> 100 µM (inactive)
same,GI50,CCRF-CEM,> 100 µM (inactive)
same,GI50,M14,> 100 µM (inactive)
same,GI50,HCT-116,> 100 µM (inactive)
same,GI50,SNB-75,> 100 µM (inactive)
same,GI50,KM-20L2,> 100 µM (inactive)
same,GI50,A549,> 100 µM (inactive)
same,GI50,LOX IMVI,> 100 µM (inactive)
same,GI50,K562,> 100 µM (inactive)
same,GI50,RPMI-8226,> 100 µM (inactive)
same,GI50,SF-295,> 100 µM (inactive)
same,GI50,COLO 205,> 100 µM (inactive)
same,GI50,MOLT-4,> 100 µM (inactive)
same,GI50,TK-10,> 100 µM (inactive)
same,GI50,LXFL 529,> 100 µM (inactive)
same,GI50,NCI-H460,> 100 µM (inactive)
same,GI50,SF-539,> 100 µM (inactive)
same,GI50,786-0,> 100 µM (inactive)
same,GI50,OVCAR-4,> 100 µM (inactive)
same,GI50,SW-620,> 100 µM (inactive)
same,GI50,SNB-19,> 100 µM (inactive)
same,GI50,SK-MEL-2,> 100 µM (inactive)
same,GI50,Malme-3M,> 100 µM (inactive)
same,GI50,IGROV-1,> 100 µM (inactive)
same,GI50,A498,> 100 µM (inactive)
same,GI50,SK-OV-3,> 100 µM (inactive)
same,GI50,DLD-1,> 100 µM (inactive)
same,GI50,EKVX,> 100 µM (inactive)
same,GI50,KM12,> 100 µM (inactive)
same,GI50,HOP-62,> 100 µM (inactive)
same,GI50,CAKI-1,> 100 µM (inactive)
same,GI50,DMS-114,> 100 µM (inactive)
same,GI50,HL-60,> 100 µM (inactive)
same,GI50,OVCAR-5,> 100 µM (inactive)
same,GI50,M19-MEL,> 100 µM (inactive)
same,GI50,OVCAR-8,> 100 µM (inactive)
same,GI50,OVCAR-3,> 100 µM (inactive)
same,GI50,RXF 631,> 100 µM (inactive)
same,GI50,UACC-62,> 100 µM (inactive)
same,GI50,HCT-15,> 100 µM
same,GI50,UACC-257,> 100 µM (inactive)
same,GI50,SF-268,> 100 µM (inactive)
same,GI50,HCC 2998,> 100 µM (inactive)
O=Cc1cc2c(s1)C(=O)c1sccc1C2=O,GI50,U-251,0.314 µM (active)
same,GI50,SNB-78,1.41 µM (inactive)
same,GI50,ACHN,0.585 µM (active)
same,GI50,UO-31,0.411 µM (active)
same,GI50,SK-MEL-5,0.129 µM (active)
same,GI50,SK-MEL-28,0.176 µM (active)
same,GI50,CCRF-CEM,0.476 µM (active)
same,GI50,M14,0.0403 µM (active)
same,GI50,NCI/ADR-RES,0.188 µM (active)
same,GI50,HCT-116,0.256 µM (active)
same,GI50,SNB-75,0.19 µM (active)
same,GI50,KM-20L2,2.1 µM (inactive)
same,GI50,MDA-MB-435,0.0187 µM (active)
same,GI50,A549,0.813 µM (active)
same,GI50,LOX IMVI,0.0376 µM (active)
same,GI50,K562,0.541 µM (active)
same,GI50,RPMI-8226,0.309 µM (active)
same,GI50,SF-295,0.169 µM (active)
same,GI50,COLO 205,2.21 µM (inactive)
same,GI50,MOLT-4,1.23 µM (inactive)
same,GI50,SR,0.303 µM (active)
same,GI50,HOP-92,1.46 µM (inactive)
same,GI50,TK-10,1.92 µM (inactive)
same,GI50,NCI-H226,1.79 µM (inactive)
same,GI50,LXFL 529,0.2 µM (active)
same,GI50,NCI-H460,1.32 µM (inactive)
same,GI50,SF-539,0.215 µM (active)
same,GI50,786-0,1.03 µM (active)
same,GI50,OVCAR-4,0.22 µM (active)
same,GI50,SW-620,0.257 µM (active)
same,GI50,SNB-19,0.366 µM (active)
same,GI50,SK-MEL-2,0.337 µM (active)
same,GI50,Malme-3M,0.368 µM (active)
same,GI50,Hs-578T,0.231 µM (active)
same,GI50,IGROV-1,1.49 µM (inactive)
same,GI50,HT-29,1.88 µM (inactive)
same,GI50,NCI-H522,0.785 µM (active)
same,GI50,HOP-18,0.183 µM (active)
same,GI50,A498,1.37 µM (inactive)
same,GI50,T47D,2.28 µM (inactive)
same,GI50,SK-OV-3,2.15 µM (inactive)
same,GI50,DLD-1,0.351 µM (active)
same,GI50,DMS-273,0.168 µM (active)
same,GI50,EKVX,1.61 µM (inactive)
same,GI50,KM12,2.68 µM (inactive)
same,GI50,HOP-62,1.82 µM (inactive)
same,GI50,DU-145,0.18 µM (active)
same,GI50,CAKI-1,1.77 µM (inactive)
same,GI50,DMS-114,0.188 µM (active)
same,GI50,HL-60,0.863 µM (active)
same,GI50,MCF7,0.564 µM (active)
same,GI50,MDA-N,0.0484 µM (active)
same,GI50,XF498,1.26 µM (inactive)
same,GI50,OVCAR-5,0.865 µM (active)
same,GI50,M19-MEL,0.0237 µM (active)
same,GI50,OVCAR-8,0.338 µM (active)
same,GI50,MDA-MB-231,0.792 µM (active)
same,GI50,NCI-H23,0.191 µM (active)
same,GI50,PC-3,2.08 µM (inactive)
same,GI50,OVCAR-3,0.222 µM (active)
same,GI50,SN12C,0.35 µM (active)
same,GI50,UACC-62,0.248 µM (active)
same,GI50,RXF 393,0.337 µM (active)
same,GI50,HCT-15,0.381 µM
same,GI50,UACC-257,0.345 µM (active)
same,GI50,SF-268,0.247 µM (active)
same,GI50,HCC 2998,1.56 µM (inactive)
CCN(CC)c1c(C)c(C(=O)OC)nn1-c1ccccc1,GI50,U-251,61.1 µM (inactive)
same,GI50,SNB-78,> 100 µM (inactive)
same,GI50,UO-31,33 µM (inactive)
same,GI50,SK-MEL-5,32.8 µM (inactive)
same,GI50,SK-MEL-28,> 100 µM (inactive)
same,GI50,CCRF-CEM,63.1 µM (inactive)
same,GI50,NCI/ADR-RES,36.4 µM (inactive)
same,GI50,HCT-116,89.1 µM (inactive)
same,GI50,SNB-75,> 100 µM (inactive)
same,GI50,KM-20L2,> 100 µM (inactive)
same,GI50,A549,97.5 µM (inactive)
same,GI50,LOX IMVI,86.5 µM (inactive)
same,GI50,K562,36.9 µM (inactive)
same,GI50,RPMI-8226,23.2 µM (inactive)
same,GI50,SF-295,> 83.6 µM (inactive)
same,GI50,COLO 205,> 100 µM (inactive)
same,GI50,MOLT-4,43.1 µM (inactive)
same,GI50,HOP-92,71 µM (inactive)
same,GI50,NCI-H226,> 77.1 µM (inactive)
same,GI50,NCI-H460,> 100 µM (inactive)
same,GI50,SF-539,> 100 µM (inactive)
same,GI50,OVCAR-4,> 100 µM (inactive)
same,GI50,SW-620,> 100 µM (inactive)
same,GI50,SNB-19,> 72.1 µM (inactive)
same,GI50,SK-MEL-2,> 89.7 µM (inactive)
same,GI50,Malme-3M,> 96.6 µM (inactive)
same,GI50,IGROV-1,> 100 µM (inactive)
same,GI50,HT-29,70.3 µM (inactive)
same,GI50,NCI-H522,63.8 µM (inactive)
same,GI50,HOP-18,> 100 µM (inactive)
same,GI50,A498,> 85.1 µM (inactive)
same,GI50,SK-OV-3,> 100 µM (inactive)
same,GI50,DLD-1,> 100 µM (inactive)
same,GI50,DMS-273,> 100 µM (inactive)
same,GI50,EKVX,> 81.1 µM (inactive)
same,GI50,KM12,> 85.3 µM (inactive)
same,GI50,HOP-62,> 100 µM (inactive)
same,GI50,CAKI-1,> 44.7 µM (inactive)
same,GI50,DMS-114,38.7 µM (inactive)
same,GI50,HL-60,35.2 µM (inactive)
same,GI50,MCF7,80.4 µM (inactive)
same,GI50,XF498,> 34.5 µM (inactive)
same,GI50,OVCAR-5,> 100 µM (inactive)
same,GI50,M19-MEL,> 66.2 µM (inactive)
same,GI50,OVCAR-8,> 100 µM (inactive)
same,GI50,NCI-H23,33.6 µM (inactive)
same,GI50,OVCAR-3,60.5 µM (inactive)
same,GI50,SN12C,> 100 µM (inactive)
same,GI50,UACC-62,> 100 µM (inactive)
same,GI50,RXF 393,33.3 µM (inactive)
same,GI50,HCT-15,> 100 µM
same,GI50,UACC-257,31.2 µM (inactive)
same,GI50,SF-268,81.3 µM (inactive)
same,GI50,HCC 2998,> 43.7 µM (inactive)
